Experimental data taken from patent US20160137746A1, “METHODS FOR TREATING HIGH CARDIOVASCULAR RISK PATIENTS WITH HYPERCHOLESTEROLEMIA” (Sanofi Biotechnology, priority 2014, published 2016).
Values joined by “and” are separate entries in the source; they are usually repeats but may differ in a detail not shown here. Equal entries are not always repeated.

System: high cardiovascular risk patients with hypercholesterolemia
Assay: ODYSSEY LONG TERM: lipid efficacy of alirocumab 150 mg Q2W vs placebo
Assay type: in vivo, human
Protocol: Patients were stratified according to heFH population, prior history of MI or ischemic stroke, statin treatment and geographic region. Patients at high cardiovascular risk were defined as 1) having heFH (who may or may not have CHD/CHD risk equivalents) or 2) no prior diagnosis of heFH but having hypercholesterolemia together with established CHD or CHD risk equivalents.
Primary analyses of efficacy endpoints were conducted using an ITT approach (based on the ITT population defined above), including all lipid data, regardless of whether the patient was continuing therapy or not. This corresponds to ITT estimands, defined for primary and key secondary endpoints. In addition, analyses were also conducted using an on-treatment approach (based on the mITT population defined above), including lipid data collected during the efficacy treatment period. This corresponds to on-treatment estimands of key secondary endpoints.
With regards to the primary efficacy analysis (ITT approach), the percent change in calculated LDL-C from baseline to Week 24 was analyzed using a mixed-effect model with repeated measures (MMRM) approach. All post-baseline data available from Week 4 to Week 52 analysis windows were used and missing data were accounted for by the MMRM. […] This model provided baseline adjusted least-squares means (LSmeans) estimates at Week 24 for both treatment groups with their corresponding SEs and 95% confidence intervals.
Continuous secondary variables anticipated to have a normal distribution (i.e., lipids other than TGs and Lp(a)) were analyzed using the same MMRM model as for the primary endpoint. […] Combined estimate for mean in both treatment groups, as well as the differences of these estimates, with their corresponding SEs, 95% Cls and p-value were provided (through SAS MIANALYZE procedure).
Binary secondary efficacy endpoints were analyzed using multiple imputation approach for handling of missing values followed by stratified logistic regression with treatment group as main effect and corresponding baseline value(s) as covariate, stratified by randomization factors (as per IVRS). Combined estimates of odds ratio versus placebo, 95% CI, and p-value were provided (through SAS MIANALYZE procedure).

[1] = Week 24, total PCSK9 levels at or above the median
[2] = Week 24, total PCSK9 levels below the median
[3] = Week 24, ITT population, MMRM, alirocumab 150 Q2W
[4] = subgroup baseline HDL-C <40 mg/dL/<1.04 mmol/L, ITT
[5] = subgroup baseline HDL-C ≧40 mg/dL/≧1.04 mmol/L, ITT
[6] = subgroup baseline calculated LDL-C <100 mg/dL/<2.59 mmol/L, ITT
[7] = subgroup baseline calculated LDL-C ≧160 mg/dL/≧4.14 mmol/L, ITT
[8] = subgroup baseline calculated LDL-C ≧100 to <130 mg/dL/≧2.59 to <3.37 mmol/L, ITT
[9] = subgroup baseline calculated LDL-C ≧130 to <160 mg/dL/≧3.37 to <4.14 mmol/L, ITT

Alirocumab: human anti-PCSK9 antibody; HCVR SEQ ID NO:1, LCVR SEQ ID NO:6; CDRs SEQ ID NOs 2/3/4/7/8/10
Calculated LDL-C, LS mean percent change from baseline (Week 24, men): −65.5% | Calculated LDL-C percent change, treatment effect versus placebo (Week 24, patients with baseline LDL-C <100 mg/dL): −75.0% | Calculated LDL-C percent change, treatment effect versus placebo (Week 24, patients with baseline LDL-C ≧160 mg/dL): −41.3% | Calculated LDL-C percent change, LS mean difference vs placebo [1]: −66.0% | Calculated LDL-C, LS mean percent change from baseline [1]: −62.1% | Calculated LDL-C percent change, LS mean difference vs placebo [2]: −57.3% | Calculated LDL-C, LS mean percent change from baseline [2]: −60.1% | Calculated LDL-C percent change, LS mean difference vs placebo (Week 24, women): −56.6% | Calculated LDL-C, LS mean percent change from baseline (Week 24, women): −53.4% | Apo A1, LS mean (SE) change from baseline to Week 24 (%) (Week 24, ITT population): 4.0 (0.4) % | Apo B, LS mean (SE) change from baseline to Week 24 (%) (Week 24, ITT population): −52.8 (0.7) % | Fasting triglycerides, combined estimate for adjusted mean (SE) change from baseline to Week 24 (%) (Week 24, ITT population): −15.6 (0.8) % | HDL-C, LS mean (SE) change from baseline to Week 24 (%) (Week 24, ITT population): 4.0 (0.4) % | Lipoprotein (a), combined estimate for adjusted mean (SE) change from baseline to Week 24 (%) (Week 24, ITT population): −29.3 (0.7) % | Non-HDL-C, LS mean (SE) change from baseline to Week 24 (%) (Week 24, ITT population): −51.6 (0.6) % | Proportion (%) of patients reaching calculated LDL-C levels at Week 24: <70 mg/dL (regardless of risk) (Week 24, ITT population): 79.3% | Proportion (%) of patients reaching calculated LDL-C levels at Week 24: <70 mg/dL (very high risk) or <100 mg/dL (high risk) (Week 24, ITT population): 80.7% | Total cholesterol, LS mean (SE) change from baseline to Week 24 (%) (Week 24, ITT population): −37.8 (0.5) % | Calculated LDL-C Week 24 percent change from baseline, LS mean difference (SE) vs placebo (Week 24, ITT population, MMRM): −61.9 (1.3) % | Calculated LDL-C percent change from baseline, LS mean (SE) [3]: −61.0 (0.7) % and −61.0% | Calculated LDL-C value (absolute level), LS mean (SE) [3]: 48.3 (0.9) mg/dL | Calculated LDL-C value, LS mean (SE) [3]: 1.252 mmol/L | LS mean (SE) change from baseline to Week 24 in measured LDL-C (Week 24, ITT, LDL-cholesterol measured by beta-quantification): −57.8 (0.8) % | Apo-B - Percent change from baseline to Week 24, LS mean difference vs. placebo (Week 24, On-treatment): placebo of −55.5% | Calculated LDL-C - Percent change from baseline to Week 24, LS mean difference vs. placebo (Week 24, On-treatment): placebo of −63.5% | Non-HDL-C - Percent change from baseline to Week 24, LS mean difference vs. placebo (Week 24, On-treatment): placebo of −53.7% | LS mean absolute LDL-C reduction (Week 24, subgroup baseline calculated LDL-C <100 mg/dL/<2.59 mmol/L, ITT): -51.6 mg/dL | LS mean absolute LDL-C reduction (Week 24, subgroup baseline calculated LDL-C ≧160 mg/dL/≧4.14 mmol/L, ITT): -115.8 mg/dL | LS mean absolute LDL-C reduction (Week 24, subgroup baseline calculated LDL-C ≧100 to <130 mg/dL/≧2.59 to <3.37 mmol/L, ITT): -71.2 mg/dL | LS mean absolute LDL-C reduction (Week 24, subgroup baseline calculated LDL-C ≧130 to <160 mg/dL/≧3.37 to <4.14 mmol/L, ITT): -85.3 mg/dL | Calculated LDL-C percent change from baseline, LS mean (SE) (Week 36, ITT population, MMRM, alirocumab 150 Q2W): −59.5% | Calculated LDL-C percent change from baseline, LS mean (SE) (Week 52, ITT population, MMRM, alirocumab 150 Q2W): −56.8% | Additional LDL-C reduction from baseline versus placebo (Week 78): 56% | Percentage change from baseline to Week 78 in calculated LDL-C (Week 78, ITT population): −52.4 (0.9) % | Percentage change from baseline to Week 78 in calculated LDL-C, LS mean difference (SE) vs placebo (Week 78, ITT population): −56.0 (1.6) % | Percent decrease in LDL cholesterol (intention-to-treat, Week 24 (final analysis)): 61% | Percent change from baseline in calculated LDL-C at week 24, LS mean difference (SE) vs placebo [4]: −66.1 (2.8) % | Percent change from baseline in calculated LDL-C at week 24, LS means (SE) [4]: −65.5 (1.6) % | Percent change from baseline in calculated LDL-C at week 24, LS mean difference (SE) vs placebo [5]: −60.8 (1.4) % | Percent change from baseline in calculated LDL-C at week 24, LS means (SE) [5]: −59.9 (0.8) % | Percent change from baseline in calculated LDL-C at week 24, LS mean difference (SE) vs placebo [6]: −75.0 (2.2) % | Percent change from baseline in calculated LDL-C at week 24, LS means (SE) [6]: −61.3 (1.3) % | Percent change from baseline in calculated LDL-C at week 24, LS mean difference (SE) vs placebo [7]: −41.3 (3.3) % | Percent change from baseline in calculated LDL-C at week 24, LS means (SE) [7]: −59.5 (1.9) % | Percent change from baseline in calculated LDL-C at week 24, LS mean difference (SE) vs placebo [8]: −62.5 (2.0) % | Percent change from baseline in calculated LDL-C at week 24, LS means (SE) [8]: −62.0 (1.2) % | Percent change from baseline in calculated LDL-C at week 24, LS mean difference (SE) vs placebo [9]: −54.6 (2.9) % | Percent change from baseline in calculated LDL-C at week 24, LS means (SE) [9]: −59.8 (1.7) %
